One assay deals with VEGFR2 (Homo sapiens, UniProt P35968). The experiment in a line: HTRF method for testing the inhibitory activity of compounds against VEGFR2. It counts as biochemical. The settings on record: IC50 by nonlinear regression, read-out: VEGFR2 kinase activity. In short, it runs like this: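 HTRF kinase assay with 10-point, 1:3 compound dilutions prepared in DMSO from 1 mM. The reaction was incubated 40 min at room temperature. IC50 came from nonlinear regression (variable slope) of inhibition against log concentration.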
Sequence of VEGFR2 (P35968 20-1356, species assumed): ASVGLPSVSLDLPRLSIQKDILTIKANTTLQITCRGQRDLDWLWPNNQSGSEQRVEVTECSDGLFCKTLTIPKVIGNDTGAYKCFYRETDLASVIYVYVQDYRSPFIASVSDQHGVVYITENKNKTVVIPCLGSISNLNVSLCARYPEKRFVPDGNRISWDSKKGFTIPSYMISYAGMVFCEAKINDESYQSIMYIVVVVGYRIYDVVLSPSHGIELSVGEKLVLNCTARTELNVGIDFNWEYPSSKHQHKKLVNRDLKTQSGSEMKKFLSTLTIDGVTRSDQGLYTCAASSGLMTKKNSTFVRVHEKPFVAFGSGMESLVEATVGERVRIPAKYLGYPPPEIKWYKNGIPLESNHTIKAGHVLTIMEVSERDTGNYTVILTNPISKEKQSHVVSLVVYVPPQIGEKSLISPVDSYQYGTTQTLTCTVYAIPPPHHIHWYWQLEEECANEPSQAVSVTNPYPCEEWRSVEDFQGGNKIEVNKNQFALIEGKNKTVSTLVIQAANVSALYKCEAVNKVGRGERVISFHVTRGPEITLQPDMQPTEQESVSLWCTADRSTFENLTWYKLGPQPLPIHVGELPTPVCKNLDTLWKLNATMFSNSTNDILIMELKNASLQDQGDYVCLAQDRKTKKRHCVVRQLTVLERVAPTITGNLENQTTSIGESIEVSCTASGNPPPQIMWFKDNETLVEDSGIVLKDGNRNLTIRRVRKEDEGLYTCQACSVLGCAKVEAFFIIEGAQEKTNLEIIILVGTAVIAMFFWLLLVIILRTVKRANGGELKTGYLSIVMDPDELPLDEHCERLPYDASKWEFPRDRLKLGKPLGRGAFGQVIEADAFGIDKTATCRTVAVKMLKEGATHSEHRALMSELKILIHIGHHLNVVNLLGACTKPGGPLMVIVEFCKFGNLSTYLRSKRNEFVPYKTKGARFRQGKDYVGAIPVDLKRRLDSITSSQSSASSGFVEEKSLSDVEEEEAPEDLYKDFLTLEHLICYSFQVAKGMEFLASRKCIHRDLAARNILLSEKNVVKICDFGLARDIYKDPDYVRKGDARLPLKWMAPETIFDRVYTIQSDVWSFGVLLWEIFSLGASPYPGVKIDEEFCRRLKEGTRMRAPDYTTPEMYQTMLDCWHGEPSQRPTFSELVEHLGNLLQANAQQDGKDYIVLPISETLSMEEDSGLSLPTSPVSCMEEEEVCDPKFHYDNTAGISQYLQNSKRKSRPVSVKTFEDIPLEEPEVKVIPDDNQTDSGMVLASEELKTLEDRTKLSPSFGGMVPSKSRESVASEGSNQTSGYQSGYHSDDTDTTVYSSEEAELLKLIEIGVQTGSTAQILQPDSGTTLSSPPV
A general note: Time-resolved FRET reads energy transfer from a long-lived donor to a nearby acceptor.

Another assay concerns the target RET (Homo sapiens, UniProt P07949). The experiment in a line: HTRF method for testing the inhibitory activity of compounds against RET. The settings on record: IC50 by nonlinear regression, read-out: RET kinase activity. It counts as biochemical. The method in brief:
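Compounds tested at 10 concentrations in 1:3 series, duplicate wells, 0.5% DMSO final; reaction incubated 30 min at room temperature. IC50 obtained by nonlinear regression (variable-slope dose response) of inhibition against log compound concentration.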

A further assay deals with T1, Ba/F3-KIF5B-RET cell (Homo sapiens, UniProt P07949).
T1 construct: fused on or other part: P33176 (Kinesin-1 heavy chain)
T1 sequence (P07949 whole entry, change not shown, the tested form may be a part): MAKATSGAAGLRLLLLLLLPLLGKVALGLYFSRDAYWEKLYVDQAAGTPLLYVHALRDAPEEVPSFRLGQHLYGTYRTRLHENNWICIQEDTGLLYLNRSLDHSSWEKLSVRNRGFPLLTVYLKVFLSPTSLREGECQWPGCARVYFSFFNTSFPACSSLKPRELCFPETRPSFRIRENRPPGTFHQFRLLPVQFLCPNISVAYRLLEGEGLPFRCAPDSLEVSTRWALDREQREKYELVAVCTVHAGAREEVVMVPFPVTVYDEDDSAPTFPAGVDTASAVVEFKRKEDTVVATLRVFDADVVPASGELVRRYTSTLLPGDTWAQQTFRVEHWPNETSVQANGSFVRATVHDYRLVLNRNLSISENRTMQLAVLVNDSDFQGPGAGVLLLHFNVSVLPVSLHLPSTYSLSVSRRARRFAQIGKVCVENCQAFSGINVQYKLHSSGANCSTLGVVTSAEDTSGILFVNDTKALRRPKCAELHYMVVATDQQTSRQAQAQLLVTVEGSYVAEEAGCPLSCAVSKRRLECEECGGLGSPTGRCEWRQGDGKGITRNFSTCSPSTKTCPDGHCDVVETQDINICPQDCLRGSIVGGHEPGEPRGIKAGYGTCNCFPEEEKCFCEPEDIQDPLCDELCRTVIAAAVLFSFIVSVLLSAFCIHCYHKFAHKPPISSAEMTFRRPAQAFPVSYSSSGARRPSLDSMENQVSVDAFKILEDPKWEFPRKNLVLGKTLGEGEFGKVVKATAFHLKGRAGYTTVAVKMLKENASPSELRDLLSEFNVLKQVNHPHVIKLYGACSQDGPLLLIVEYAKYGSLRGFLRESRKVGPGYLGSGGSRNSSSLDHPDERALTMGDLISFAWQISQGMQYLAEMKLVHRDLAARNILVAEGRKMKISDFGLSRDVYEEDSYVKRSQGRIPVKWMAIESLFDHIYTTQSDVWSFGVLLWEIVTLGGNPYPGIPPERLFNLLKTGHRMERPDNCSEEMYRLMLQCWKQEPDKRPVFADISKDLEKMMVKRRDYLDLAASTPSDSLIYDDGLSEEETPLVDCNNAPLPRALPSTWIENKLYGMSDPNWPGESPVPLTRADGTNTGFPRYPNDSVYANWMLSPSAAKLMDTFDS
The experiment in a line: CellTiter-Glo luminescence assay for inhibitory activity against Ba/F3-KIF5B-RET cell. It counts as cell-based. The settings on record: Ba/F3-KIF5B-RET cells, 72 h. The method in brief:
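Ba/F3 cells stably expressing human KIF5B-RET (puromycin-selected) were treated with compounds in a 10-point, 1:3 dilution series from a 2 mM DMSO intermediate. Viability by CellTiter-Glo luminescence; IC50 fitted with a four-parameter logistic equation.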
Background: Cellular ATP, detected with luciferase, serves as a proxy for viable cell number.

SMILES strings stand for the structures.

This passage reports IC50 and GI50 results from US12552785B2, “Pyrazolo[1,5-α]pyridine derivative, preparation method therefor, and composition and use thereof” (SHENZHEN ZHONGGE BIOLOGICAL TECHNOLOGY CO., LTD., priority 2020, dated 2026).

Sequence of RET (P07949 29-1114): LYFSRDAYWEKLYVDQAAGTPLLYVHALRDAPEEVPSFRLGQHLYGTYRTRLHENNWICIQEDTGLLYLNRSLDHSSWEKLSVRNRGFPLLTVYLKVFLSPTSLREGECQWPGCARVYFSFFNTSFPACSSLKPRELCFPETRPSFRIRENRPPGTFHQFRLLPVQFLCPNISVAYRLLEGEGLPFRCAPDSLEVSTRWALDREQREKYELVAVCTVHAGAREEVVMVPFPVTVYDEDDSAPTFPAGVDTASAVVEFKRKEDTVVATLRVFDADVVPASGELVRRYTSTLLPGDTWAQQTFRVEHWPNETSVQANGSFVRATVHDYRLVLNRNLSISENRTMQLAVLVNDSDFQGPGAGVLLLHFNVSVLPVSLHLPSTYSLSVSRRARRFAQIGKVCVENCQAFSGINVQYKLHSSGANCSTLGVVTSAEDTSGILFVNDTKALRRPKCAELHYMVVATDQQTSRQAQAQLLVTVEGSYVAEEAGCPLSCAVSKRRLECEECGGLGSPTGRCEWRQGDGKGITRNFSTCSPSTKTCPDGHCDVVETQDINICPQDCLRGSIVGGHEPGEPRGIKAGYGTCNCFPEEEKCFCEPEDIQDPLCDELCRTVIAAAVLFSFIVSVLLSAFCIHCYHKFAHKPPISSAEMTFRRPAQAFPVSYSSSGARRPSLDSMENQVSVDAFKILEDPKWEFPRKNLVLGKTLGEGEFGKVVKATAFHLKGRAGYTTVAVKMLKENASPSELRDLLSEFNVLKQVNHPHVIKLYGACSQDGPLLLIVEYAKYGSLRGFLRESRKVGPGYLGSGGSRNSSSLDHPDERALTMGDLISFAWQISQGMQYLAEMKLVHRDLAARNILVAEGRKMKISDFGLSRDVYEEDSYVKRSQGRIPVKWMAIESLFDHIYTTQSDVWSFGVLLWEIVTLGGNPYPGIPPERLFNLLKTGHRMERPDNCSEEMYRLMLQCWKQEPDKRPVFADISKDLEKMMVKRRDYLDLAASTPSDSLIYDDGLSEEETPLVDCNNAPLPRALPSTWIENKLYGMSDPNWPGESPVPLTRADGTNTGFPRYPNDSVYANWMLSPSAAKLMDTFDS

For the compound `C#CCOc1cc(-c2ccc(N(C)[C@@H](C)c3ccc(-n4cc(F)cn4)nc3)nc2)c2c(C#N)cnn2c1` [Compound 53, (S)-4-(6-((1-(6-(4-fluoro-1H-pyrazol-1-yl)pyridin-3-yl)ethyl)(methyl)amino)pyridine-3-yl)-6-(prop-2-yn-1-yloxy)pyrazolo[1,5-a]pyridine-3-carbonitrile], the IC50 at VEGFR2 stood at 293 nM; at RET, 5.52 nM. In addition, on Ba/F3-KIF5B-RET cell, growth was halved (GI50) at 432 nM.

`C[C@@H](c1ccc(-n2cc(F)cn2)nc1)N(C)c1ccc(-c2cc(N3CCN(C)CC3)cn3ncc(C#N)c23)cn1` [Compound 19, (S)-4-(6-((1-(6-(4-fluoro-1H-pyrazol-1-yl)pyridin-3-yl)ethyl)(methyl)amino)pyridine-3-yl)-6-(4-methylpiperazin-1-yl)pyrazolo[1,5-a]pyridine-3-carbonitrile]: the IC50 on VEGFR2 was 41.1 nM; at RET, 0.42 nM. Further, it took 41 nM to inhibit growth on Ba/F3-KIF5B-RET cell by half (GI50).

In the case of `CN(C(=O)c1ccc(N2CCCC2)nc1)c1ccc(-c2cc(OCC(C)(C)O)cn3ncc(C#N)c23)cn1` [Compound 64], the results for the IC50 on VEGFR2 and at RET were 2480 nM and greater than 500 nM, respectively. Besides, the GI50 at Ba/F3-KIF5B-RET cell was found to be 1120 nM.

`CC(C)(O)COc1cc(-c2ccc(NCc3ccc(N4CCCC4)nc3)nc2)c2c(C#N)cnn2c1` [Compound 10, 6-(2-hydroxy-2-methylpropoxy)-4-(6-(((6-(pyrrolidin-1-yl)pyridin-3-yl)methyl)amino)pyridine-3-yl)pyrazo[1,5-a]pyridine-3-carbonitrile]: the IC50 at VEGFR2 worked out at 90.8 nM; on RET, 2.08 nM. Also, the GI50 at Ba/F3-KIF5B-RET cell amounted to 7.3 nM.

Regarding `CC[C@@H](c1ccc(-n2cc(F)cn2)nc1)N(C)c1ccc(-c2cc(OCC(C)(C)O)cn3ncc(C#N)c23)cn1` [Compound 44, (S)-4-(6-((1-(6-(4-fluoro-1H-pyrazolyl)pyridin-3-yl)propyl)(methyl)amino)pyridin-3-yl)-6-(2-hydroxy-2-methylpropoxy)pyrazo[1,5-a]pyridine-3-carbonitrile], the IC50 on VEGFR2 came to 18 nM; at RET it was 0.26 nM. The GI50 at Ba/F3-KIF5B-RET cell came to 18.6 nM.

With `C[C@@H](c1ccc(-n2cc(F)cn2)cc1)N(C)c1ccc(-c2cc(OCC(C)(C)C#N)cn3ncc(C#N)c23)cn1` [Compound 17, (S)-6-(2-cyano-2-methylpropoxy)-4-(6-((1-(4-(4-fluoro-1H-pyrazol-1-yl)phenyl)ethyl)(methyl)amino)pyridin-3-yl)pyrazolo[1,5-a]pyridine-3-carbonitrile], the IC50 at VEGFR2 was 1210 nM; on RET it was 18.4 nM. Further, the GI50 at Ba/F3-KIF5B-RET cell is 184 nM.

As to `CC(C)(O)COc1cc(-c2ccc(NCc3ccc(N4CCOCC4)nc3)nc2)c2c(C#N)cnn2c1` [Compound 12], the IC50 came to 107 nM on VEGFR2 and 12.8 nM at RET. At Ba/F3-KIF5B-RET cell, the GI50 was found to be 75.5 nM.

As to `C[C@@H](c1ccc(-n2cc(F)cn2)nc1)N(C)c1ccc(-c2cc(NCC3CC3)cn3ncc(C#N)c23)cn1` [Compound 49, (S)-6-((cyclopropylmethyl)amino)-4-(6-((1-(6-(4-fluoro-1H-pyrazol-1-yl)pyridin-3-yl)ethyl)(methyl)amino)pyridin-3-yl)pyrazolo[1,5-a]pyridine-3-carbonitrile], the results for the IC50 on VEGFR2 and on RET were greater than 5000 nM and 1.25 nM, respectively. The same compound displayed a GI50 at Ba/F3-KIF5B-RET cell of 30.7 nM.

As for `C[C@H](Nc1ccc(-c2cc(OCC(C)(C)O)cn3ncc(C#N)c23)cn1)c1ccc(-n2cc(F)cn2)cc1` [Compound 16, (S)-4-(6-((1-(4-(4-fluoro-1H-pyrazol-1-yl)phenyl)ethyl)amino)pyridin-3-yl)-6-(2-hydroxy-2-methylpropoxy)pyrazolo[1,5-a]pyridine-3-carbonitrile], the IC50 on VEGFR2 was 15.6 nM; at RET, 1.63 nM. Moreover, on Ba/F3-KIF5B-RET cell, halving of growth (GI50) required 35.5 nM.

Turning to `C[C@@H](c1ccc(-n2cc(F)cn2)nc1)N(C)c1ccc(-c2cc(OCC#N)cn3ncc(C#N)c23)cn1` [Compound 32, (S)-4-(6-((1-(6-(4-fluoro-1H-pyrazol-1-yl)pyridin-3-yl)ethyl)(methyl)amino)pyridine-3-yl)-6-cyanomethoxypyrazolo[1,5-a]pyridine-3-carbonitrile], the IC50 was greater than 5000 nM at VEGFR2 and 4.23 nM on RET. For the same compound, the GI50 at Ba/F3-KIF5B-RET cell turned out to be 224 nM.

In the case of `C[C@@H](c1ccc(-n2cc(F)cn2)nc1)N(C)c1ccc(-c2cc(N3CCCCC3)cn3ncc(C#N)c23)cn1` [Compound 47, (S)-4-(6-((1-(6-(4-fluoro-1H-pyrazol-1-yl)pyridin-3-yl)ethyl)(methyl)amino)pyridine-3-yl)-6-(piperidin-1-yl)pyrazolo[1,5-a]pyridine-3-carbonitrile], the IC50 on VEGFR2 is greater than 5000 nM; on RET, 5.45 nM. This compound also came in with a concentration for 50% growth inhibition (GI50) at Ba/F3-KIF5B-RET cell of 236 nM.

For the compound `CCCNc1cc(-c2ccc(N(C)[C@@H](C)c3ccc(-n4cc(F)cn4)nc3)nc2)c2c(C#N)cnn2c1` [Compound 60], the IC50 at VEGFR2 was determined as 43.9 nM; at RET, 0.98 nM. This compound returned a GI50 at Ba/F3-KIF5B-RET cell of 11.6 nM.

One may read the GI50 as the concentration giving 50% growth inhibition.
